Data from the NIST ThermoML archive (doi:10.1016/j.jct.2018.12.019).
± gives the expanded uncertainty stated by the source.

What was measured:
[1] = 98 kPa, Liquid; for speed of sound: Frequency=3 MHz, Single path-length method; for mass density: Vibrating tube method
[2] = xn = mol fraction of the nth substance listed; details: 98 kPa, Liquid, x2 = 0; for speed of sound: Frequency=3 MHz, Single path-length method; for mass density: Vibrating tube method
[3] = excess molar enthalpy (molar enthalpy of mixing); xn = mol fraction of the nth substance listed; details: 298.15 K; 98 kPa; Liquid; Calvet calorimetry; x2 = 0

SMILES | speed of sound ([1]; 288.15 K) [m/s] | mass density ([1]; 288.15 K) [kg/m3] | speed of sound ([1]; 298.15 K) [m/s] | mass density ([1]; 298.15 K) [kg/m3] | speed of sound ([1]; 308.15 K) [m/s] | mass density ([1]; 308.15 K) [kg/m3] | speed of sound ([1]; 318.15 K) [m/s] | mass density ([1]; 318.15 K) [kg/m3] | speed of sound ([1]; 328.15 K) [m/s] | mass density ([1]; 328.15 K) [kg/m3] | speed of sound ([2]; 288.15 K) [m/s] | mass density ([2]; 288.15 K) [kg/m3] | speed of sound ([2]; 298.15 K) [m/s] | mass density ([2]; 298.15 K) [kg/m3] | speed of sound ([2]; 308.15 K) [m/s] | mass density ([2]; 308.15 K) [kg/m3] | speed of sound ([2]; 318.15 K) [m/s] | mass density ([2]; 318.15 K) [kg/m3] | speed of sound ([2]; 328.15 K) [m/s] | mass density ([2]; 328.15 K) [kg/m3] | further results
Cn1ccnc1 [1-methylimidazole] | 1634.1 ± 1.4 | 1039.36 ± 0.83 | 1596.5 ± 1.4 | 1030.52 ± 0.83 | 1559 ± 1.4 | 1021.66 ± 0.83 | 1521.8 ± 1.4 | 1012.76 ± 0.83 | 1485 ± 1.4 | 1003.83 ± 0.83 | – | – | – | – | – | – | – | – | – | – | –
CCO [ethanol] | 1176.9 ± 1.1 | 793.68 ± 0.81 | 1142.7 ± 1.1 | 785.14 ± 0.81 | 1108.8 ± 1.1 | 776.48 ± 0.81 | 1075.2 ± 1.1 | 767.68 ± 0.81 | 1041.9 ± 1.1 | 758.65 ± 0.81 | – | – | – | – | – | – | – | – | – | – | –
CCO [ethanol] + Cn1ccnc1 | – | – | – | – | – | – | – | – | – | – | 1176.9 ± 1.1 | 793.68 ± 0.81 | 1142.7 ± 1.1 | 785.14 ± 0.81 | 1108.8 ± 1.1 | 776.48 ± 0.81 | 1075.2 ± 1.1 | 767.68 ± 0.81 | 1041.9 ± 1.1 | 758.65 ± 0.81 | excess molar enthalpy [3]: 0 ± 0.000239 kcal/mol
CO [methanol] | 1135.7 ± 1.1 | 796.13 ± 0.81 | 1102.6 ± 1.1 | 786.75 ± 0.81 | 1069.8 ± 1.1 | 777.29 ± 0.81 | 1037.4 ± 1.1 | 767.71 ± 0.81 | 1005.3 ± 1.1 | 757.97 ± 0.81 | – | – | – | – | – | – | – | – | – | – | –
CO [methanol] + Cn1ccnc1 | – | – | – | – | – | – | – | – | – | – | 1135.7 ± 1.1 | 796.13 ± 0.81 | 1102.6 ± 1.1 | 786.75 ± 0.81 | 1069.8 ± 1.1 | 777.29 ± 0.81 | 1037.4 ± 1.1 | 767.71 ± 0.81 | 1005.3 ± 1.1 | 757.97 ± 0.81 | –
CCCO [propan-1-ol] | 1239.5 ± 1 | 807.5 ± 0.81 | 1205.2 ± 1 | 799.53 ± 0.81 | 1171.1 ± 1 | 791.44 ± 0.81 | 1137.3 ± 1 | 783.18 ± 0.81 | 1103.8 ± 1 | 774.7 ± 0.81 | – | – | – | – | – | – | – | – | – | – | –
CCCO [propan-1-ol] + Cn1ccnc1 | – | – | – | – | – | – | – | – | – | – | 1239.5 ± 1 | 807.5 ± 0.81 | 1205.2 ± 1 | 799.53 ± 0.81 | 1171.1 ± 1 | 791.44 ± 0.81 | 1137.3 ± 1 | 783.18 ± 0.81 | 1103.8 ± 1 | 774.7 ± 0.81 | excess molar enthalpy [3]: 0 ± 0.000239 kcal/mol
CC(C)O [propan-2-ol] | 1173.2 ± 1.1 | 789.18 ± 0.81 | 1138.4 ± 1.1 | 780.86 ± 0.81 | 1103.3 ± 1.1 | 772.26 ± 0.81 | 1067.9 ± 1.1 | 763.3 ± 0.81 | 1031.9 ± 1.1 | 753.91 ± 0.81 | – | – | – | – | – | – | – | – | – | – | –
CC(C)O [propan-2-ol] + Cn1ccnc1 | – | – | – | – | – | – | – | – | – | – | 1173.2 ± 1.1 | 789.18 ± 0.81 | 1138.4 ± 1.1 | 780.86 ± 0.81 | 1103.3 ± 1.1 | 772.26 ± 0.81 | 1067.9 ± 1.1 | 763.3 ± 0.81 | 1031.9 ± 1.1 | 753.91 ± 0.81 | excess molar enthalpy [3]: 0 ± 0.000239 kcal/mol
O [water] + Cn1ccnc1 | – | – | – | – | – | – | – | – | – | – | – | – | – | – | – | – | – | – | 1547.3 ± 1 | 985.71 ± 0.8 | –
